US20240279225A1, “COMPOUNDS AND METHODS FOR THERANOSTIC TARGETING OF PARP ACTIVITY” (BOARD OF REGENTS, THE UNIVERSITY OF TEXAS SYSTEM, priority 2021, published 2024)
Entries after “also recorded” stand apart in the source; their conditions may differ. Like-named read-outs stand apart in the source and are kept apart here.

Experiments:
[1] = mouse models, cited from earlier work
[2] = humans, eight subjects with cancer and eight healthy volunteers; cited from earlier work
[3] = target: T1, PARP1 (Homo sapiens, UniProt P09874); settings: purified enzyme assays, background values; cited from earlier work
[4] = Shelf stability in PBS (10% EtOH); assay type: physicochemical
[5] = system: MCF-7 empty vector cells; test: Cellular uptake of ^18F-Talazoparib, MCF-7 empty vector cells; assay type: cell-based
Protocol: (§1) All experiments were performed in quadruplicate in a 24 well plate format. […] Experiment that abrogated metabolism were performed at 4° C., a temperature at which cellular membranes become less fluid and permeability is low. After 120 min, an aliquot of the cell media (200 μl) was obtained for gamma counting, the remaining media removed, and cells washed with MEBSS. Cells were then lysed with 1% SDS, 10 mM sodium borate for 30 min at room temperature. […] Protein contents were quantified using BCA protein assay kit (Thermos Scientific) according to the manufacture's protocol using bovine serum albumin (BSA) as the protein standard.

[6] = target: T2, PARP1 (Mus musculus, UniProt P11103); test: In vivo whole body biodistribution and blocking by small animal PET/CT
T2 construct: from tissue; host or cells: Lymphoid tissue and liver of a living nude female mouse
Protocol: Preliminary PET images were acquired for 10 min using a 15 cm field of view (FOV); CT images were acquired for fusion using a 7 cm FOV and automatically “stitched” and fused to the PET imaging in the reconstruction software (Albira Suite, Bruker). […] Image data were decay corrected to injection time (Albira, Bruker) and expressed as % ID/cc or SUV as indicated (PMOD, PMOD Technologies). Actual injected dose was calculated based on measuring the pre- and post-injection activity in the syringe with a dose calibrator (Capintec) and mice were individually weighed to calculate individual standardized uptake values (SUV).
In vivo whole body biodistribution and blocking experiments were performed using a small animal PET/CT scanner after the injection of ^18F-Talazoparib (˜100 μCi) in a nude female mouse; images were acquired two hours post injection and decay corrected to the injection time.

[7] = system: MCF-7 cells stably transfected with MDR1 P-glycoprotein (Pgp); test: Cellular uptake of ^18F-Talazoparib, MCF-7 cells expressing MDR1 Pgp
Protocol: as §1

[8] = Stability in full human plasma at 37° C.; assay type: in vitro ADME
[9] = target: T1, PARP1; test: PARP1 apoptosis assay kit (Trevigen), inhibition of purified PARP1 enzyme activity; assay type: biochemical; settings: racemic mixture, three replicates per concentration

T2 sequence (P11103 whole entry): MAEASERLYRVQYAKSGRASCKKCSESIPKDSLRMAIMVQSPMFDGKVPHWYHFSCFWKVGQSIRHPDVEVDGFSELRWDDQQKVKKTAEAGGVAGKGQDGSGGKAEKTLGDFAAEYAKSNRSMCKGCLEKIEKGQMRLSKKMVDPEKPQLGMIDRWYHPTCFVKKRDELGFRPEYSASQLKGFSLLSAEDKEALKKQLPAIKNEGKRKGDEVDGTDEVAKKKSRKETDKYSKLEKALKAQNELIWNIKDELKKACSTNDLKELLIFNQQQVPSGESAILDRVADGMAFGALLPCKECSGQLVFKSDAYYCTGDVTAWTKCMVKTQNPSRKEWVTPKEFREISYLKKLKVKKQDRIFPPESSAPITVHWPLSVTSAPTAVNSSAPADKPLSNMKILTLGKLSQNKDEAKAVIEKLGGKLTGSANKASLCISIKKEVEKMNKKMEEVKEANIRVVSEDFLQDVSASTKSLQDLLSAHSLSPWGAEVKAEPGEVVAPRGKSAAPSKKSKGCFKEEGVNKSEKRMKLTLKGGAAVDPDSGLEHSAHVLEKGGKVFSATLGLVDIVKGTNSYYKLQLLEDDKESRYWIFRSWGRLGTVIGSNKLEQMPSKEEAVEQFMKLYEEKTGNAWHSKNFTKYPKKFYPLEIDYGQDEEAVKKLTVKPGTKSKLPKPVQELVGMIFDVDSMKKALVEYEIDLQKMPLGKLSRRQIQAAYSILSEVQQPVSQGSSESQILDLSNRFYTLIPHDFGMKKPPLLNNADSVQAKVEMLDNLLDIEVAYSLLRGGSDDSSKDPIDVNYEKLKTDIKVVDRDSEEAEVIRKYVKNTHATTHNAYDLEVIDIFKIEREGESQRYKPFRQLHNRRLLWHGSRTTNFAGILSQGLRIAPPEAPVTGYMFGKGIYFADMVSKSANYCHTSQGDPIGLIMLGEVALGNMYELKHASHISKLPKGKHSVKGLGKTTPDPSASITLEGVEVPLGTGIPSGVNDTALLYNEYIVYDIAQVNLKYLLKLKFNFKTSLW
T1 sequence (P09874 whole entry): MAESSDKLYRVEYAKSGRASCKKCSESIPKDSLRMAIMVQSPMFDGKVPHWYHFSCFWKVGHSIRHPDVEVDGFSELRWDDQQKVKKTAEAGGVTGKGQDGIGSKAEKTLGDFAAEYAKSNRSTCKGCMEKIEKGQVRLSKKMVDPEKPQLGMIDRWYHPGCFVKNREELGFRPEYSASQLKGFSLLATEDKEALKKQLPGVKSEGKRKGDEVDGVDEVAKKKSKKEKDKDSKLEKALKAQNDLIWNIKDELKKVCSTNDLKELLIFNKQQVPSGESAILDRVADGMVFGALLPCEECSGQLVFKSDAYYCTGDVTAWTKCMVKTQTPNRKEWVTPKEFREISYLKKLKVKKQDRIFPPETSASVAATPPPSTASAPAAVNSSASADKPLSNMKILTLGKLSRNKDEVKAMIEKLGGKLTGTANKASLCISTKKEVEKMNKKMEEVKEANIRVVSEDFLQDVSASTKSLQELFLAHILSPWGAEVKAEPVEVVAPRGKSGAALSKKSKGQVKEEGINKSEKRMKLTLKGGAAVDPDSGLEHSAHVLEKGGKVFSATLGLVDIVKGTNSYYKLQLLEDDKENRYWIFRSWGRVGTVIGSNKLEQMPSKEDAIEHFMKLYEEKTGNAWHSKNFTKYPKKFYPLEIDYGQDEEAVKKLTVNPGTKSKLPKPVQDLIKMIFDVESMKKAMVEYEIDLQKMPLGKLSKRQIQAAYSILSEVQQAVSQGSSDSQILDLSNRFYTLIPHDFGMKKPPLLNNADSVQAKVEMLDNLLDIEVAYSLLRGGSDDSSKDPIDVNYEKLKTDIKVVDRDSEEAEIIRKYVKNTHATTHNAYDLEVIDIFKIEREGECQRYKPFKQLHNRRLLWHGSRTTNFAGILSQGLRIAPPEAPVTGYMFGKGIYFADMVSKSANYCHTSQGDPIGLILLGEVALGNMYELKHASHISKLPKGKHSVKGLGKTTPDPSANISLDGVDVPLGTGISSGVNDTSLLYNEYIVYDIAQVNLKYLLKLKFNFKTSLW

O=C1NCCn2c(-c3ccc(OCC[18F])cc3)nc3cccc1c32 [^18F-FTT]
intact parent molecule observed in the blood ([1]; after 5 minutes): 55% | intact parent molecule observed in the blood ([1]; after 30 min): 13% | organ uptake on PET imaging [2]: high uptake in spleen, pancreas, and liver

O=C1NCCn2c(-c3ccc(OCCF)cc3)nc3cccc1c32 [^18F-FTT]
IC50 [3]: 6.3 nM

Cn1ncnc1C1c2n[nH]c(=O)c3cc([18F])cc(c23)NC1c1ccc(F)cc1 (stereo not drawn) [^18F-Talazoparib, 5-[^18F]fluoro-8-(4-fluorophenyl)-9-(1-methyl·1H·1,2,4-triazol-5-yl)-2,7,8,9-tetrahydro-3H-pyrido[4,3,2-de]phthalazin-3-one]
shelf stability [4]: up to 4 h | cell uptake in presence of excess non-radioactive Talazoparib ([5]; 37° C., 100 nM non-radioactive Talazoparib preincubated 30 min): completely blocked | cell uptake of tracer ([5]; 120 min incubation at 37° C., compared to 4° C.): high uptake of the tracer compared to cells incubated at 4 °C | effect of MDR inhibitors on cell uptake ([5]; LY-335979 or CP-100356 preincubated 30 min): no effect | blocking of lymphoid tissue and liver uptake by cold Talazoparib ([6]; 0.3 mg/kg cold Talazoparib IV 60 minutes before tracer): could be blocked by excess cold Talazoparib; also recorded: blockade of target engagement of PARP1 | excretion pathway ([6]; 2 hr static images, vehicle-treated nude mice): mixed excretion pathway (renal and hepatobiliary clearance) | tissue uptake on PET images ([6]; nude female mouse, ~100 μCi, two hours post injection): uptake in the lymphoid tissue (LT) located at the base of the neck, in the liver (L), and in excretory organs, such as bladder and intestine | MDR1 Pgp transport substrate [7]: recognized as a transport substrate by MDR1 Pgp | basal retention at 4° C. ([7]; MDR1 Pgp expressed, 4° C.): further reduced | net retention of tracer ([7]; MDR1 Pgp expressed, 37° C., 120 min): drastic decrease in the net retention | basal retention with excess cold Talazoparib ([7]; MDR1 Pgp expressed, excess cold Talazoparib): fully displaced | cellular retention with Pgp-mediated efflux inhibited ([7]; MDR1 Pgp expressed, with LY or CP): increased back to levels compared to MCF-7 cells lacking MDR1 Pgp | stable in full human plasma [8]: up to 4 h

methyl 2-(4-bromophenyl)-7-fluoro-3-(1-methyl-1H-1,2,4-triazol-5-yl)-4-oxo-1,2,3,4-tetrahydroquinoline-5-carboxylate [Compound 1]
IC50 [9]: 2.33 nM
